Consider five molecules from patent USRE46792E1, “Oxazole compound and pharmaceutical composition” (Otsuka Pharmaceutical Co., Ltd., priority 2005, dated 2018).

In experiment [1] the test system is TNF-α production in mouse peripheral blood mononuclear cells. Kind of experiment: Inhibitory activity measurement on TNF-α production (LPS-stimulated mouse peripheral blood mononuclear cells, ELISA). The class given is cell-based, mouse (male BALB/c). The following applies: PBMC, LPS 1 μg/ml, 5 hours at 37° C., ELISA of culture supernatant. How it is done:
Inhibitory Activity Measurement on TNF-α Production
TNF-α production inhibitory activity was evaluated according to the following tests.
(1) Isolation of Mononuclear Cells from Mouse Peripheral Blood
Mononuclear cells were isolated from heparinized blood obtained from male BALB/c mice (Charles River Laboratories, Japan) by density gradient centrifugation using Lympholyte-M (Cedarlane Laboratories). Viable cell numbers in the peripheral blood mononuclear cells were counted using trypan blue dye, and prepared in cell culture medium (RPMI 1640 medium containing 10% FCS) to 1.25×10^6 cells/ml.
(2) Induction of TNF-α Production
Test compounds were dissolved in DMSO, and test compound solutions were diluted for use in cell culture media. 20 μl test compound solutions of different concentrations and 160 μl peripheral blood mononuclear cell suspensions were placed in a 96-well plate, and cultured for 30 minutes. 20 μl (final concentration 1 μg/ml) lipopolysaccharide (LPS) derived from E. coli (serotype 055:B5) was added thereto to induce THF-α production. The mixtures were then cultured at 37° C. for 5 hours, and the culture supernatant was removed from each well.
(3) Measurement of TNF-α Concentration
TNF-α concentrations in the culture supernatants were measured by ELISA (OptEIA™ Set Mouse TNF-α, BD Pharmingen). The IC50 values (concentration which produced 50% inhibition of TNF-α production) for the test compounds were determined with the Excel (Microsoft Excel 2000 SR-1) statistical package using regression analysis function.
In general terms: ELISA stands for enzyme-linked immunosorbent assay.

In the next experiment the target is human PDE4D3 (PDE4D) (Homo sapiens (Human), UniProt Q08499). Kind of experiment: Phosphodiesterase (PDE)4 inhibitory activity evaluation test ([3H]cAMP hydrolysis by PDE4D enzyme solution). The format is biochemical. The following applies: recombinant human PDE4D3 expressed in COS-7 cells; [3H]cAMP substrate; 10 min at 30° C.; 2% DMSO. In short, it runs like this:
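Human PDE4D3 expressed in COS-7 cells; cell supernatant used as enzyme at a dilution giving 10–30% cAMP turnover. Compounds (10-fold serial dilutions, 2% final DMSO) incubated with enzyme and 2 μM [3H]cAMP stock in 20 mM Tris-HCl pH 7.4 with MgCl2 for 10 min at 30° C. Reaction stopped by boiling.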

Sequence of human PDE4D3 (PDE4D) (Q08499 other isoform, or with tags, fused parts or gaps): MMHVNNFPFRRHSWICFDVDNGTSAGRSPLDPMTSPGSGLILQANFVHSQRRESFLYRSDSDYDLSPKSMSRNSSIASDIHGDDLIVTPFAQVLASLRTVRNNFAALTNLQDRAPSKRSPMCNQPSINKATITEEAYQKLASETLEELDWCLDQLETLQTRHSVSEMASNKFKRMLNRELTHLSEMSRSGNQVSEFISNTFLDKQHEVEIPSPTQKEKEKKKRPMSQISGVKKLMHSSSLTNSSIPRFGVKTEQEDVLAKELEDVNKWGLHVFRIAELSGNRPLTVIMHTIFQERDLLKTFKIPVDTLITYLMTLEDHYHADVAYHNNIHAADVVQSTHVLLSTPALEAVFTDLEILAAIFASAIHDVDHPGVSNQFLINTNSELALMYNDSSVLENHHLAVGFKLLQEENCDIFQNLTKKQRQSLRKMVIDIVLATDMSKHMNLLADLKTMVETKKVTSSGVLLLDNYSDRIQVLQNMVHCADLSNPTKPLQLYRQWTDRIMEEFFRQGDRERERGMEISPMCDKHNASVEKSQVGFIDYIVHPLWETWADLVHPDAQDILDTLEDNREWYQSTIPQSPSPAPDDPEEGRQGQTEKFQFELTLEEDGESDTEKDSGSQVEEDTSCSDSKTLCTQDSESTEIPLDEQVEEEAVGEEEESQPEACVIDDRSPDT

In the case of `COc1ccc(-c2nc(CNC(=O)c3ncccc3C)co2)cc1OC1CCCC1` [Example 18, N-[2-(3-cyclopentyloxy-4-methoxyphenyl)oxazol-4-ylmethyl]-3-methylpicolinamide], the concentration for half-maximal inhibition (IC50) (in experiment [1]; on human PDE4D3 (PDE4D)) was < 50 nM in each case. Regarding `COc1ccc(-c2nc(CNC(=O)c3c(F)cccc3OC)co2)cc1OCC1CC1` [Example 43, N-[2-(3-cyclopropylmethoxy-4-methoxyphenyl)oxazol-4-ylmethyl]-2-fluoro-6-methoxybenzamide], the IC50 (in experiment [1]; at human PDE4D3 (PDE4D)) was < 50 nM throughout.

Consider `COc1ccc(-c2nc(CCC(=O)c3ncccc3OC)co2)cc1OCC1CC1` [Example 126], for which the half-maximal inhibitory concentration (IC50) (commonly the midpoint of a concentration-inhibition curve) in experiment [1] is < 50 nM. For the molecule `COc1ccc(-c2nc(CCC(=O)c3ncccc3C)co2)cc1OC1C=CCCC1` (stereo not drawn) [Example 157, 3-{2-[3-(2-cyclohexenyloxy)-4-methoxyphenyl]oxazol-4-yl}-1-(3-methylpyridin-2-yl)propan-1-one], the 50% inhibitory concentration (IC50) (in experiment [1]; at human PDE4D3 (PDE4D)) was < 50 nM in each case. On to `C=CCOc1ccccc1C(=O)CCc1coc(-c2ccc(OC)c(OCC3CC3)c2)n1` [Example 177, 1-(2-allyloxyphenyl)-3-[2-(3-cyclopropylmethoxy-4-methoxyphenyl)oxazol-4-yl]propan-1-one], for which the IC50 (in experiment [1]; on human PDE4D3 (PDE4D)) was < 50 nM each time.
